Values after ≈ are worked out from the molar mass of the structure shown. Like-named read-outs stand apart in the source and are kept apart here.
How the values were obtained:
[1] = tested on: Bacillus subtilis ATCC 6633; test: Broth microdilution MIC/MBC, antibacterial; type: cell-based; conditions: ATCC6633
Procedure: (§1) The minimal inhibitory concentration (MIC) was determined with the microdilution technique using 96-well polystyrene microplates (Medlab, Poland), as indicated by the European Committee on Antimicrobial Susceptibility Testing (EUCAST) guidelines. In this process, stock solutions of each tested Schiff base dissolved in dimethylsulphoxide (DMSO, Stanlab, Poland) were used at a concentration of 50 mg/mL. Before in vitro antibacterial activity detection, the basic concentration of 1000 µg/mL of each compound was prepared with Mueller–Hinton broth medium (MHB, BioMaxima, Lublin, Poland). The experiment was prepared using Mueller–Hinton broth medium in 96-well microplates. A series of two-fold dilutions of the tested compounds in the concentration range from 0.49 to 1000 μg/mL was made in culture broth medium. Then, 2 μL of bacterial inoculum with a density of 0.5 McFarland standard was added to each well. Each well was filled with a total volume of 100 μL. Then, the microtiter plates were incubated for 18 ± 2 h at 35 °C. After the incubation, the results were spectrophotometrically determined in Biotek ELx800 (Biokom, Janki, Poland) at 600 nm (OD600). The lowest concentration of the tested compounds with the absence of bacterial growth was determined as an MIC. Three replicates for each strain and compound were performed.
(§2) After incubation, 5 μL of the broth media cultured with bacteria or fungi were removed from each well of the plates used in the MIC experiments. Next, they were culturd onto the surface of the MHA medium (BioMaxima, Lublin, Poland) plate for bacteria or MHA +2% glucose plate for yeasts. The inoculated plates were incubated in the conditions mentioned above. After incubation, a visual reading of MBC or MFC values was made. […] Three replicates for each strain and compound were performed.

[2] = tested on: Escherichia coli ATCC 25922; test: Broth microdilution MIC/MBC, antibacterial; type: cell-based; conditions: ATCC25922, Escherichia coli ATCC 25922
Procedure: as §1, §2

[3] = tested on: Klebsiella pneumoniae ATCC 13883; test: Broth microdilution MIC/MBC, antibacterial; type: cell-based; conditions: ATCC13883, Klebsiella pneumoniae ATCC 13883
Procedure: as §1, §2

[4] = tested on: Micrococcus luteus ATCC 10240; test: Broth microdilution MIC/MBC, antibacterial; type: cell-based; conditions: ATCC10240
Procedure: as §1, §2

[5] = tested on: Pseudomonas aeruginosa ATCC 27853; test: Broth microdilution MIC/MBC, antibacterial; type: cell-based; conditions: ATCC27853
Procedure: as §1, §2

[6] = tested on: Staphylococcus aureus ATCC 6538; test: Broth microdilution MIC/MBC, antibacterial; type: cell-based; conditions: ATCC6538
Procedure: as §1, §2

[7] = tested on: Staphylococcus epidermidis ATCC 12228; test: Broth microdilution MIC/MBC, antibacterial; type: cell-based; conditions: ATCC12228
Procedure: as §1, §2

[8] = tested on: Candida albicans ATCC 10231; test: Broth microdilution MIC/MFC, antifungal; type: cell-based; conditions: for MIC: ATCC10231; for MFC: ATCC10231, read-out: MFC
Procedure: (§3) To determine the antifungal activity of the newly synthesized Schiff bases against the reference strains of Candida spp., the broth microdilution method was used according to the EUCAST [52] and Clinical and Laboratory Standards Institute (CLSI) guidelines with some modifications to the medium. Before in vitro antifungal activity detection, the basic concentration of 1000 µg/mL of each compound was prepared with Mueller–Hinton broth (BioMaxima, Lublin, Poland) supplemented with 2% glucose (MHB+2% glucose). […] The final concentrations of the Schiff bases ranged from […] to 1000 µg/mL. All the reference strains of Candida spp. used were first subcultured to the Mueller–Hinton agar medium (BioMaxima, Lublin, Poland) with 2% glucose (MHA +2% glucose) at 37 °C for 24 h. Next, 2 µL of appropriate fungal suspensions was added to each well containing 100 µL of MHB + 2% glucose and the various concentrations of the tested Schiff bases.
as §2

Candida auris CDC B11903 = test: Broth microdilution MIC/MFC, antifungal; type: cell-based; conditions: Candidozyma auris, CDCB11903
Procedure: as §3, §2

[9] = tested on: Candida glabrata ATCC 15126; test: Broth microdilution MIC/MFC, antifungal; type: cell-based; conditions: Nakaseomyces glabratus, ATCC15126
Procedure: as §3, §2

[10] = tested on: Candida glabrata ATCC 90030; test: Broth microdilution MIC/MFC, antifungal; type: cell-based; conditions: Nakaseomyces glabratus, ATCC90030
Procedure: as §3, §2

[11] = tested on: Candida krusei ATCC 14243; test: Broth microdilution MIC/MFC, antifungal; type: cell-based; conditions: Pichia kudriavzevii, ATCC14243
Procedure: as §3, §2

[12] = tested on: Candida lusitaniae ATCC 3449; test: Broth microdilution MIC/MFC, antifungal; type: cell-based; conditions: Clavispora lusitaniae, ATCC3449
Procedure: as §3, §2

[13] = tested on: Candida tropicalis ATCC 1369; test: Broth microdilution MIC/MFC, antifungal; type: cell-based; conditions: ATCC1369
Procedure: as §3, §2

MDA-MB-231 = test: MTT cell viability assay; type: cell-based, human; conditions: Homo sapiens, MDA-MB-231, MTT, read-out: Cytotoxic activity IC50
Procedure: (§4) All the cell lines were purchased from the American Type Culture Collection (ATCC, Rockville, MD, USA) and cultured in strictly defined conditions according to the recommended ATCC protocol. The PC3 cells were cultured in RPMI 1640 (Roswell Park Memorial Institute, Biowest SAS, Nuaillé, France), while the MDA-MB-231 and HaCaT cells were maintained in DMEM (Dulbecco’s Modified Eagle’s Medium, Biowest SAS, Nuaillé, France) supplemented with 1% streptomycin and penicillin and in 10% heat-inactivated fetal bovine serum (FBS, Gibco BRL San Francisco, CA, USA) with 1% streptomycin and penicillin. The cells were incubated in a 37 °C/5% CO2 humidified incubator. They were cultured until 80–90% confluence was achieved. Then, they were harvested by treatment with 0.25% trypsin-0.02% EDTA (Gibco BRL, San Francisco, CA, USA) and used in the experiments. Untreated cells were used as a control. […] After 24 h of incubation, the culture medium was replaced with a fresh medium. […] Then, the medium was aspirated and formed formazan crystals were solubilized by adding isopropanol-DMSO mixture (1:1 vol). The intensity of the dissolved crystals was measured using a UVM 340 reader (ASYS Hitech GmbH, Eugendorf, Austria) at a wavelength of 570 nm. Cell viability was estimated by the percentage of MTT reduction in cells to which the tested compounds were added, compared to the control sample, where only the medium was added. The experiments were repeated three times. The IC50 was calculated using GraphPad Prism 9.0.0 (GraphPad Software).

PC3 = test: MTT cell viability assay; type: cell-based, human; conditions: Homo sapiens, PC-3, PC3, MTT, read-out: Cytotoxic activity IC50
Procedure: as §4

MTT cell viability assay = type: cell-based; conditions: human, HaCaT cells (immortal keratinocytes), HaCaT normal cell line, read-out: Cytotoxic activity IC50 (converted)
Procedure: as §4

[14] = tested on: reference strains of bacteria; test: Positive control antibiotics, broth microdilution MIC; type: cell-based; conditions: range over the bacteria
Procedure: The reference antibiotics used during our studies for the selected species of reference bacteria were ciprofloxacin and cefuroxime (Merck KGaA, Darmstadt, Germany). Nystatin (Merck KGaA, Darmstadt, Germany), a known antifungal antibiotic, was used as a positive control for Candida spp.
All reference antimicrobials against bacteria or fungi were tested in a final concentration range from 0.0049 to 10 µg/mL. The tested Schiff bases were two-fold diluted in the concentration range from 0.49 to 1000 μg/mL in culture broth medium for bacteria or fungi. The medium with DMSO at the final concentrations and without the tested Schiff bases served as a control—no microbial growth inhibition was observed. […]
The minimal inhibitory concentration (MIC) was determined with the microdilution technique using 96-well polystyrene microplates (Medlab, Poland), as indicated by the European Committee on Antimicrobial Susceptibility Testing (EUCAST) guidelines. […] After the incubation, the results were spectrophotometrically determined in Biotek ELx800 (Biokom, Janki, Poland) at 600 nm (OD600). The lowest concentration of the tested compounds with the absence of bacterial growth was determined as an MIC. […]

SMILES | MIC [1] | MIC [2] | MIC [3] | MIC [4] | MIC [5] | MIC [6] | MIC [7] | MIC [8] | MFC [8] | MIC (Candida auris CDC B11903) | MIC [9] | MIC [10] | MIC [11] | MIC [12] | MIC [13] | IC50 (MDA-MB-231; 72 h (table footnote)) | IC50 (MDA-MB-231; same value in µg/mL) | IC50 (PC3; 72 h (table footnote)) | IC50 (PC3; same value in µg/mL) | IC50 at 72 h (MTT cell viability assay; 72 h (table footnote)) | also measured
COc1cccc(C=Nn2c(-c3cccc(F)c3)n[nH]c2=S)c1 [RO11, 5-(3-fluorophenyl)-4-[(3-methoxybenzylidene)amino]-2,4-dihydro-3H-1,2,4-triazole-3-thione] | > 1000 µg/mL | > 1000 µg/mL | > 1000 µg/mL | > 1000 µg/mL | > 1000 µg/mL | > 1000 µg/mL | > 1000 µg/mL | 500 µg/mL (≈ 1.52 mM) | 1000 µg/mL (≈ 3.05 mM) | 1000 µg/mL (≈ 3.05 mM) | > 1000 µg/mL | 500 µg/mL (≈ 1.52 mM) | 1000 µg/mL (≈ 3.05 mM) | > 1000 µg/mL | 1000 µg/mL (≈ 3.05 mM) | > 100 µM | > 38.8 µg/mL | > 100 µM | > 38.8 µg/mL | > 100 µM | MFC [10]: > 1000 µg/mL; IC50 at 72 h (MTT cell viability assay; same value in µg/mL): > 38.8 µg/mL; melting point: 203 to 204 °C
O=C(O)c1cn(C2CC2)c2cc(N3CCNCC3)c(F)cc2c1=O [ciprofloxacin] | – | – | – | – | – | – | – | – | – | – | – | – | – | – | – | – | – | – | – | – | MIC [14]: 0.24 to 0.98 µg/mL (≈ 0.000724 to 0.00296 mM)
Cc1ccccc1C=Nn1c(-c2cccc(F)c2)n[nH]c1=S [RO10, 5-(3-fluorophenyl)-4-[(2-methylbenzylidene)amino]-2,4-dihydro-3H-1,2,4-triazole-3-thione] | > 1000 µg/mL | > 1000 µg/mL | > 1000 µg/mL | > 1000 µg/mL | > 1000 µg/mL | 125 µg/mL (≈ 0.4 mM) | 1000 µg/mL (≈ 3.2 mM) | 500 µg/mL (≈ 1.6 mM) | > 1000 µg/mL | 1000 µg/mL (≈ 3.2 mM) | 500 µg/mL (≈ 1.6 mM) | 500 µg/mL (≈ 1.6 mM) | > 1000 µg/mL | > 1000 µg/mL | 500 µg/mL (≈ 1.6 mM) | > 100 µM | > 31.2 µg/mL | > 100 µM | > 31.2 µg/mL | > 100 µM | MBC [6]: > 1000 µg/mL; MFC [9]: > 1000 µg/mL; MFC [10]: > 1000 µg/mL; MFC [13]: > 1000 µg/mL; IC50 at 72 h (MTT cell viability assay; same value in µg/mL): > 31.2 µg/mL; melting point: 223 to 224 °C
Cc1ccc(C=Nn2c(-c3cccc(F)c3)n[nH]c2=S)cc1 [RO1, 5-(3-fluorophenyl)-4-[(4-methylbenzylidene)amino]-2,4-dihydro-3H-1,2,4-triazole-3-thione] | > 1000 µg/mL | > 1000 µg/mL | > 1000 µg/mL | > 1000 µg/mL | > 1000 µg/mL | > 1000 µg/mL | > 1000 µg/mL | 250 µg/mL (≈ 0.8 mM) | > 1000 µg/mL | > 1000 µg/mL | > 1000 µg/mL | > 1000 µg/mL | > 1000 µg/mL | > 1000 µg/mL | > 1000 µg/mL | > 100 µM | > 31.2 µg/mL | > 100 µM | > 31.2 µg/mL | > 100 µM | IC50 at 72 h (MTT cell viability assay; same value in µg/mL): > 31.2 µg/mL; melting point: 227 to 230 °C
CO/N=C(\C(=O)N[C@@H]1C(=O)N2C(C(=O)O)=C(COC(N)=O)CS[C@H]12)c1ccco1 [cefuroxime] | – | – | – | – | – | – | – | – | – | – | – | – | – | – | – | – | – | – | – | – | MIC [14]: 0.24 to 62.5 µg/mL (≈ 0.000566 to 0.147 mM)
CCCCOc1ccc(C=Nn2c(-c3cccc(F)c3)n[nH]c2=S)cc1 [RO8, 4-[(4-butoxybenzylidene)amino]-5-(3-fluorophenyl)-2,4-dihydro-3H-1,2,4-triazole-3-thione] | 1000 µg/mL (≈ 2.7 mM) | 1000 µg/mL (≈ 2.7 mM) | > 1000 µg/mL | 125 µg/mL (≈ 0.337 mM) | > 1000 µg/mL | 250 µg/mL (≈ 0.675 mM) | 250 µg/mL (≈ 0.675 mM) | 500 µg/mL (≈ 1.35 mM) | > 1000 µg/mL | > 1000 µg/mL | 500 µg/mL (≈ 1.35 mM) | > 1000 µg/mL | > 1000 µg/mL | > 1000 µg/mL | > 1000 µg/mL | > 100 µM | > 37 µg/mL | > 100 µM | > 37 µg/mL | > 100 µM | MBC [4]: > 1000 µg/mL; MBC [6]: > 1000 µg/mL; MBC [7]: > 1000 µg/mL; MFC [9]: > 1000 µg/mL; IC50 at 72 h (MTT cell viability assay; same value in µg/mL): > 37 µg/mL; melting point: 183 to 185 °C

From publication PMC10057893, “Synthesis and Biological Evaluation of New Schiff Bases Derived from 4-Amino-5-(3-fluorophenyl)-1,2,4-triazole-3-thione” (Molecules, 2023)
